# Measured values reported in patent US20120152149A1, “USE OF 1,3-DIOLS AS BIOCIDES” (BASF SE, priority 2009, published 2012).
# Key:
# Format in all cases: cell-based
# S. aureus ATCC 6538 [1] = assay: Suspension test EN 1040, bactericidal activity; settings: 1000 ppm of active substance
# Description: The bactericidal activity of the substances of this invention was carried out in a suspension test corresponding to the European standard EN 1040 and compared with the activities of customary commercial products. For this, only relatively small modifications were made. The substances of the formula (1) were dissolved in water or ethanol to give a 1% strength stock solution. For determining the bactericidal activities, the test mixtures were selected such that 1000 ppm of active substance was present in an aqueous solution. The procedure was the same with the comparison samples. For the results shown in table 2, the test mixtures were inoculated with the following bacterial strains such that the stated germ densities were present in the test mixtures. S. aureus ATCC 6538 1−2×10^7 CFU/ml The test mixtures were incubated at room temperature (22° C.+/−2° C.). After defined contact times, aliquots of 1 ml were taken in order to determine the surviving germ count. For the deactivation of the microbicidal activity of the diols, the aliquots were diluted in 1:10 dilution steps in a solution of TS broth with 10% Tween, 3% lecithin, 0.1% histidines and 0.5% sodium thiosulfate and the 10^−2 and 10^−3 dilution stages were used for determining the surviving germ count. For this purpose, corresponding aliquots were plated out on Caso medium with inhibitor (Merck) and incubated at 37° C. for 24 h. The ascertained surviving germ counts were in each case compared with a mixture containing water (water control) by determining the logarithmic reduction in the surviving germ counts based on the water control.
# E. coli ATCC 10536 = assay: Preservation stress test, example formulation 1 (standard emulsion O/W); settings: 1% active substance
# Summary of the method: (§1)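 O/W emulsion containing 1% diol (water as placebo), inoculated individually or as mixed culture at 10^5-10^6 CFU/g and held 28 d at 20-25° C. Surviving counts at 0, 2, 7, 14 and 28 d after dilution in neutralising phosphate buffer pH 7.4 with Tween 80/lecithin; expressed as log reduction from initial count.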
# P. aeruginosa ATCC 15442 = assay: as above; settings: 1% active substance
# Summary of the method: as §1
# S. aureus ATCC 6538 [2] = assay: as above; settings: 1% active substance
# Summary of the method: as §1
# C. albicans ATCC 10231 = assay: Suspension test EN 1275, activity against yeasts; settings: 1000 ppm of active substance
# Description: The fungicidal activity was determined in accordance with European standard EN 1275 and compared with the activities of customary commercial products, with only slight modifications having been carried out. The substances of the formula (1) were dissolved in water or ethanol to give a 1% strength stock solution. To determine the microbicidal activities of the diols against yeasts, the test mixtures were selected such that 1000 ppm of active substance was present in an aqueous solution. For the results shown in table 2, the test mixtures were inoculated with the following yeast and mold strains such that the stated germ densities were present in the test mixtures. C. albicans ATCC 10231 1−2×10^6 CFU/ml The test mixtures were incubated at room temperature (22° C.+/−2° C.). After defined contact times, aliquots of 1 ml were taken in order to determine the surviving germ count. For the deactivation of the microbicidal activity of the diols, the aliquots were diluted in 1:10 dilution steps in a solution of Sabouraud medium with 10% Tween, 3% lecithin, 0.1% histidines and 0.5% sodium thiosulfate and the 10^−2, 10^−3 and 10^−4 dilution stages were used for determining the surviving germ count. For this, corresponding aliquots were plated out on Sabouraud medium with inhibitor and incubated at 30° C. for 2 d. The ascertained surviving germ counts were in each case compared with a mixture containing water (water control) by determining the logarithmic reduction in the surviving germ counts based on the water control.
SMILES,Microbicidal activity given as logarithmic reduction in germ count (S. aureus ATCC 6538 [1]; contact time 5 min) [log. red.],Microbicidal activity given as logarithmic reduction in germ count (S. aureus ATCC 6538 [1]; contact time 30 min) [log. red.],Microbicidal activity given as logarithmic reduction in germ count (S. aureus ATCC 6538 [1]; contact time 24 h) [log. red.],Microbicidal activity given as logarithmic reduction in germ count (E. coli ATCC 10536; 48 h) [log. Red.],Microbicidal activity given as logarithmic reduction in germ count (E. coli ATCC 10536; 7 d) [log. Red.],Microbicidal activity given as logarithmic reduction in germ count (E. coli ATCC 10536; 14 d) [log. Red.],Microbicidal activity given as logarithmic reduction in germ count (P. aeruginosa ATCC 15442; 48 h) [log. Red.],Microbicidal activity given as logarithmic reduction in germ count (P. aeruginosa ATCC 15442; 7 d),Microbicidal activity given as logarithmic reduction in germ count (P. aeruginosa ATCC 15442; 14 d),Microbicidal activity given as logarithmic reduction in germ count (S. aureus ATCC 6538 [2]; 48 h) [log. Red.],Microbicidal activity given as logarithmic reduction in germ count (S. aureus ATCC 6538 [2]; 7 d) [log. Red.],Microbicidal activity given as logarithmic reduction in germ count (S. aureus ATCC 6538 [2]; 14 d) [log. Red.],Microbicidal activity given as logarithmic reduction in germ count (C. albicans ATCC 10231; contact time 5 min) [log. red.],Microbicidal activity given as logarithmic reduction in germ count (C. albicans ATCC 10231; contact time 30 min) [log. red.],Microbicidal activity given as logarithmic reduction in germ count (C. albicans ATCC 10231; contact time 24 h) [log. red.]
"CCCC(O)CO (stereo not drawn) [1,2-Pentanediol, 1,2-pentanediol, reference compound]",<1,<1,<1,0,0,0,0,≧3 log. Red.,≧3 log. Red.,0,0,0,,,
"CCCCCCCCC(C)(CO)CO [OMPD, 2-octyl-2-methylpropane-1,3-diol]",<1,4.8,>5,,,,,,,,,,>4,>4,>4
"CCCCCC(CO)(CO)CCC [PPPD, 2-pentyl-2-propylpropane-1,3-diol]",<1,1.5,>5,,,,,,,,,,1.7,>5,>5
